Assay results from patent US20100240627A1, “COMPOSITION AND METHODS RELATING TO GLUCOCORTICOID RECEPTOR-ALPHA AND PEROXISOME PROLIFERATOR-ACTIVATED RECEPTORS” (Universiteit Gent, priority 2007, published 2010).
pEC50: −log10 of the molar value.

How the values were obtained:
TRAP5b = assay: Serum TRAP5b ELISA in DBA/1 mice; type: in vivo, mouse; details: DBA/1 mice serum, daily treatment 8 days
Excerpt: (§1) Male 8- to 12-wk-old DBA/1 mice are purchased from Janvier and housed following institutional guidelines. All animal procedures are approved by the institutional animal care and ethics committee. […] The experiment is repeated with agonists for PPARα replaced by the respective agonists for PPARγ (rosiglitazone) or PPARβ/δ (L165041). At day 8, murine serum is collected and used for the determination of TRAP5b and osteocalcin levels. The Mouse TRAP™ Assay is purchased from Immunodiagnostic Systems Ltd. The Mouse Osteocalcin EIA kit is purchased from Biomedical Technologies, Inc. All assays are performed according to the manufacturer's guidelines.
(§2) The experiment is repeated with agonists for PPARα replaced by the respective agonists for PPARγ (rosiglitazone) or PPARβ/δ(L165041). A TRAP5b ELISA assay is performed for the detection of differentiated osteoclasts.

ACO mRNA in mouse liver = assay: Liver ACO mRNA in treated mice; type: in vivo; details: DEX 10 mg/kg i.p., FF 200 mg/kg gavage, daily 5 days
Excerpt: Female C57BL6J mice are used at 8 weeks. Mice are randomized to four groups (six mice/group) and matched for body weight. Animals are killed by cervical dislocation after which thymus and liver are recovered and weighed. Total RNA is extracted from liver as described below. ANOVA is used for all analyses, followed by Scheffe post-hoc tests for treated vs control comparisons. The level of significance for all statistical analyses is set at p<0.05.
GILZ and ACO mRNA expression levels from the liver are quantified via QPCR and normalized for household gene expression. Results from triplicates are shown ±SD. Results are represented as relative expression fold, i.e. with the solvent-treated control value taken as 1.

osteocalcin = assay: Serum osteocalcin in DBA/1 mice; type: in vivo, mouse; details: daily treatment 8 days
Excerpt: as §1, §2

calvarial cells = assay: Ex vivo osteoclastogenesis and osteoblast differentiation of calvarial cells; type: cell-based, mouse; details: pharmacological DEX concentrations
Experimental: Glucocorticoid-induced osteoporosis (GIO) has been considered one of the most debilitating side-effects related to long-term GC usage (Berris, Repp et al. Curr Opin Endocrinol Diabetes Obes 14(6): 446-50). The effects of compositions and methods of the present invention on glucocorticoid-induced osteoporosis is determined by analysis of markers of osteoclastogenesis, including cathepsin K, M-CSF, RANKL and OPG. Since it is believed that an increase in bone resorption is worsened by inhibition of new bone formation, thereby contributing to the GC-mediated decrease in bone mineral density, the effect compositions and methods of the present invention on osteoblast differentiation is determined using calvarial cells isolated from 3-5 day old mice.
Alkaline phosphatase staining and Q-PCR are performed for the detection of Collal, Alkp, Runx-2 and Bglap (osteocalcin) expression after 10 days of osteoblast differentiation. Alizarin Red staining is performed to determine extracellular calcium deposition after 20 days of osteoblast differentiation.
Calvarial cells are isolated from 3-5 day old mice (SV 129 background). A piece of the tail is isolated for genotyping. The pups are decapitated with scissors in the laminar flow cabinet, skin and brain are removed and the calvaria transferred into eppendorf tubes containing 1 ml PBS+1% Pen/Strep. The tubes are put on ice until digestion. […]

[1] = system: GRE-driven gene expression; assay: p(GRE)2-50-luc reporter in transfected HEK293T cells; type: cell-based; details: 8 h, DEX 1 or 0.1 μM
Experimental: (§3) Cell lysates are assayed for luciferase activities and normalized for β-gal activities. A representative of three independent experiments is shown.

[2] = system: NF-κB-driven gene expression; assay: p(IL6κB)350hu.IL6P-luc reporter in transfected HEK293T cells; type: cell-based; details: TNF 2000 IU/ml 8 h
Experimental: as §3

[3] = system: TNF-induced IL-6 production in L929sA cells; assay: TNF-induced IL-6 production, murine IL-6 ELISA; type: cell-based; details: 1 h pre-incubation, TNF 200 IU/ml 24 h, DEX 0.01 μM, GW647 0.25-1 μM, WY 2-10 μM, FIG. 1
Experimental: Murine IL-6 ELISA is performed using a kit from Biosource.
Medium is collected to perform a murine IL-6 ELISA. Protein levels obtained in ng/ml are calculated as % of max TNF response. Results are shown ±SD. **P<0.01, ***P<0.001 in FIG. 1.

[4] = system: GRE-driven gene transcription; assay: p(GRE)2-50-luc reporter in HepG2 cells; type: cell-based, human; details: HepG2 overexpressing PPARα (pSG5PPARα); 8 h
Experimental: HepG2 and BWTG3 cells are transiently transfected using Lipofectamine according to the manufacturer's instructions, HEK293T cells using CaPO4. At day −1 40,000-50,000 cells/24-well are seeded. At day 0, medium is replaced by 360 μl of fresh normal medium with 10% serum to the cells. The DNA mix is prepared by dissolving (per 24-well) 400 ng of DNA in 20 μl of TE/CaCl2 solution. The DNA-containing mixture is added dropwise to 20 μl BS/Hepes mixture. All is mixed until a fine precipitate is visible. This precipitate is finally added onto the 360 μl medium. After 8 h, medium is replaced with fresh normal medium with 10% serum and inductions are performed the following day. […]
Luc and β-gal assays are carried out according to instructions of the manufacturer (Promega). Luc activity, expressed in arbitrary light units, is corrected for the protein conc. in the sample by normalization to constitutive β-gal levels. β-gal levels are quantified with a chemiluminescent reporter assay Galacto-Light kit (TROPIX, Bedford, Mass.).
HepG2 cells are transiently transfected with p(GRE)2-50-luc, and pSG5PPARα (black bars) or pSG5 (white bars). […] Promoter activities are expressed as relative induction factor, i.e., the ratio of expression levels of induced versus non-induced conditions.

[5] = system: PDK-4 mRNA (PPARα target gene); assay: PDK-4 mRNA in primary hepatocytes of WT and PPARα KO mice; type: cell-based, mouse; details: 24 h, GW9578 500 nM, WY 10 μM
Experimental: Mouse hepatocytes are isolated by collagenase perfusion from livers of wild type and PPARα KO (PPARα−/−) mice essentially using the collagenase method (18), with several modifications. Mouse livers are perfused with Hanks' balanced salt solution (HBSS, Sigma) at a rate of 5 ml/min via cave vein before addition of collagenase Type IV (0.025%, Sigma). Cell viability is assessed by a Trypan Blue exclusion test. […] After overnight incubation, cells are incubated in a fresh William's E medium supplemented with different compounds, DEX and/or PPARα agonists.

mouse PPARα = biological target: T1, mouse PPARα (Mus musculus, UniProt P23204); details: cited from earlier work
T1 sequence (P23204 1-468): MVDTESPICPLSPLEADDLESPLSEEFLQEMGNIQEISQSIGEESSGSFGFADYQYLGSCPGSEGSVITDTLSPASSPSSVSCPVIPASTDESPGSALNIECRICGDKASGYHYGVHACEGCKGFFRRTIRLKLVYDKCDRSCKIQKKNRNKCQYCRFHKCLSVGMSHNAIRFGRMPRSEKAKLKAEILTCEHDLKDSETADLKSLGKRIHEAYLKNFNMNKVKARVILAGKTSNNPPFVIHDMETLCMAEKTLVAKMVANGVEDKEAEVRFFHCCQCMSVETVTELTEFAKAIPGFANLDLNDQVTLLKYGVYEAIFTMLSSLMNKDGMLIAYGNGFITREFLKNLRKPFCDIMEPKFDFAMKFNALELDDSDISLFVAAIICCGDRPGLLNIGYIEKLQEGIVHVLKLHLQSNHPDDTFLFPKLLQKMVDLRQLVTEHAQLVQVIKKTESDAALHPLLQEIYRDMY

[6] = system: Glucocorticoid-induced Leucine Zipper (GILZ) mRNA; assay: QPCR of GILZ mRNA in HepG2 cells; type: cell-based, human; details: HepG2 (and A549) cells, 3 h; co-treatment compared to DEX alone
Experimental: (§4) RNA extraction is performed as described before (12). RNA is isolated from cells by using TRIzol reagent (Invitrogen) according to the manufacturer's instructions. The reverse transcriptase reaction is done by using MLV enzyme (Promega) followed by a PCR reaction with Taq polymerase (Promega) on the obtained cDNA. cDNA is analyzed either by a semi-quantitative PCR using Taq polymerase (Promega) or by real-time PCR with a SYBR Green mastermix (Invitrogen). Primers for QPCR of mIL-6: fwd […] (SEQ ID No. 1) and rev […] (SEQ ID No. 2); for mGILZ: fwd […] (SEQ ID No. […]) and rev […] (SEQ ID No. 4); for hGILZ: fwd […] (SEQ ID No. 5) and rev […] (SEQ ID No. 6); for mG6Pase: fwd […] (SEQ ID No. 7) and rev […] (SEQ ID No. 8); for rMCP-1: fwd […] (SEQ ID No. 9) and rev […] (SEQ ID No. 10); for mMMP-9: […] (SEQ ID No. 11) and rev […] (SEQ ID No. 12). Primers for semi-QPCR of hPLAP: fwd […] (SEQ ID No. 13) and rev […] (SEQ ID No. 14).
HepG2 cells and FTO2B cells are incubated with the indicated agents for three hours. mRNA is isolated, reverse transcribed and the resulting cDNA is subjected to SYBR green QPCR with primers to detect G6Pase or Glucocorticoid-induced Leucine Zipper (GILZ). QPCR measurements are performed in triplicate. QPCR results, normalized to expression of household genes, are shown ±SD, in FIGS. 2B and 2C. […]

cathepsin K = assay: Cathepsin K expression in MG63b osteosarcoma cells; type: cell-based, human; details: 24 hour, DEX 10^−6M, WY 10 μM
Experimental: Cell culture—Human osteosarcoma cells MG63b and Saos-2 are cultured in Dulbecco Modified Eagle's Medium (DMEM) and McCoy's 5a Medium respectively, supplemented with 10% fetal calf serum (FCS), 100 units/ml penicillin and 0.1 mg/ml streptomycin. RT-PCR—After the appropriate inductions RNA is isolated from the cells by means of the RNeasy mini kit (Qiagen) according to the manufacturer's instructions. The mRNA is reverse transcribed with the verso cDNA kit (ABgene). The obtained cDNA is amplified by a quantitative PCR reaction with iQ Custom SYBR Green Supermix (Biorad). Gene expression of the housekeeping gene hypoxanthine-guanine phosphoribosyltransferase (HPRT) is used for normalization.

[7] = system: human placental alkaline phosphatase (hPAP) mRNA; assay: Semi-quantitative PCR of hPAP mRNA; type: cell-based; details: HepG2 and A549 cells, 8 h; DEX 1 μM, WY 10 μM; co-treatment compared to DEX alone
Experimental: as §4
A549 or HepG2 cells are treated for eight hours, mRNA is isolated, reverse transcribed and the resulting cDNA is subjected to semi-quantitative PCR analysis with primers to detect GAPDH (loading control) or hPAP in the same sample. […] Treatment with WY alone has no effect on hPAP mRNA expression.

Structure (SMILES): C[C@@H]1C[C@H]2[C@@H]3CCC4=CC(=O)C=C[C@]4(C)[C@@]3(F)[C@@H](O)C[C@]2(C)[C@@]1(O)C(=O)CO [DEX, dexamethasone]
- TRAP5b levels (TRAP5b): upregulates TRAP5b levels after 8 days
- ACO mRNA levels in liver (ACO mRNA in mouse liver): no effect
- amount of osteocalcin in murine serum (osteocalcin): significantly lowers
- osteoclastogenesis (calvarial cells): inhibit osteoclastogenesis

Structure (SMILES): CC(C)(Sc1ccc(CCN(CCCCC2CCCCC2)C(=O)NC2CCCCC2)cc1)C(=O)O [GW647, 2-(4-(2-(1-Cyclohexanebutyl-3-cyclohexylureido)ethyl)phenylthio)-2-methylpropionic acid]
- GRE-driven gene expression (luc) ([1]; HEK293T with pSVhGRα and pSG5PPARα, GW647 0.5 μM, FIG. 13A): able to antagonize GRE-driven gene expression
- NF-κB-driven gene expression (luc) ([2]; HEK293T with pSVhGRα and pSG5PPARα, GW647 0.5 μM, FIG. 12A): inhibits NF-κB-driven gene expression
- TNF-induced IL-6 production [3]: inhibited TNF-induced IL-6 production in a dose-responsive manner
- DEX-induced luciferase activity of p(GRE)2-50-luc [4]: further enhanced

Structure (SMILES): CCCCCCCN(CCc1ccc(SC(C)(C)C(=O)O)cc1)C(=O)Nc1ccc(F)cc1F [GW9578]
- PDK-4 mRNA levels [5]: significant increase in PDK-4 mRNA levels only in WT cells
- pEC50 (mouse PPARα): 8.30

Structure (SMILES): CCCc1c(OCCCOc2ccc(OCC(=O)O)cc2)ccc(C(C)=O)c1O [L165041]
- GRE-driven gene expression (luc) ([1]; HEK293T with pSVhGRα and pSG5PPARδ, L165041 1 μM, FIG. 13B): able to antagonize the GRE-driven gene expression
- NF-κB-driven gene expression (luc) ([2]; HEK293T with pSVhGRα and pSG5PPARδ, L165041, FIG. 12B): efficiently inhibit NF-κB-driven gene expression

Structure (SMILES): O=S(=O)(c1ccccc1)N(CC(F)(F)F)c1ccc(C(O)(C(F)(F)F)C(F)(F)F)cc1 [T0901317]
- GRE-driven gene expression (luc) ([1]; HEK293T with pSVhGRα and pCMX-LXR, T0901317 1 μM, FIG. 13C): not able to antagonize GRE-driven gene expression
- NF-κB-driven gene expression (luc) ([2]; HEK293T with pSVhGRα and LXR plasmid, T0901317 1 μM, FIG. 12C): efficiently inhibit NF-κB-driven gene expression

Structure (SMILES): Cc1cccc(Nc2cc(Cl)nc(SCC(=O)O)n2)c1C [WY, [[4-chloro-6-[(2,3-dimethylphenyl)amino]-2-pyrimidinyl]thio]-acetic acid]
- PDK-4 mRNA levels [5]: significant increase in PDK-4 mRNA levels only in WT cells
- GILZ mRNA expression [6]: no effect
- cathepsin K expression (cathepsin K): prevent or reverse the upregulation
- hPAP mRNA expression [7]: no effect
- TNF-induced IL-6 production [3]: inhibited TNF-induced IL-6 production in a dose-responsive manner
- DEX-induced luciferase activity of p(GRE)2-50-luc [4]: confirmed
